The source made the active and inactive calls. The calls are words filed in the database; no cut-off is given here.
Assays:
Format in all cases: functional
Setaria cervi [1] = test: Percent inhibition of filarial parasite Setaria cervi by compound at 20 ug/mL concentration
Setaria cervi [2] = test: Percent inhibition of filarial parasite Setaria cervi by compound at 10 ug/mL concentration
Setaria cervi [3] = test: Percent inhibition of filarial parasite Setaria cervi by compound at 40 ug/mL concentration
Setaria cervi [4] = test: Percent inhibition of filarial parasite Setaria cervi by compound at 5 ug/mL concentration; NI = no inhibition
Setaria cervi [5] = test: Percent inhibition of filarial parasite Setaria cervi by compound at 10 ug/mL concentration; NI = no inhibition
Setaria cervi [6] = test: Percent inhibition of filarial parasite Setaria cervi by compound at 5 ug/mL concentration

Structure (SMILES) | inhibition (Setaria cervi [1]) [%] | inhibition (Setaria cervi [2]) [%] | inhibition (Setaria cervi [3]) [%] | inhibition (Setaria cervi [4]) | inhibition (Setaria cervi [5]) | inhibition (Setaria cervi [6]) [%]
CCn1cc(C(=O)O)c(=O)c2ccc(C)nc21 | 40 | 20 | 80 | inactive | – | –
CCCNc1cc(-c2cccs2)nc(N)n1 | 60 | – | 60 | inactive | inactive | –
CCN(CC)C(=O)N1CCN(C)CC1 | 10 | – | 45 | inactive | inactive | –
Nc1nc(NCCO)cc(-c2cccs2)n1 | 60 | – | 60 | inactive | inactive | –
CO[C@@H]1[C@@H](OC(N)=O)[C@@H](O)[C@H](Oc2ccc3c(O)c(NC(=O)c4ccc(O)c(CC=C(C)C)c4)c(=O)oc3c2C)OC1(C)C | 20 | 10 | 80 | inactive | – | –
CN1CCN(c2cc(-c3cccs3)nc(N)n2)CC1 | 80 | 80 | 80 | – | – | 60
CN1CCN(c2cc(-c3cccs3)nc(-c3ccc(N)cc3)n2)CC1 | 80 | 80 | 80 | – | – | 25
Nc1nc(NCCN2CCOCC2)cc(-c2cccs2)n1 | 80 | 80 | 80 | inactive | – | –
Nc1nc(NCCCN2CCOCC2)cc(-c2cccs2)n1 | 80 | 80 | 80 | – | – | 60
Nc1ccc(-c2nc(NCCCN3CCOCC3)cc(-c3cccs3)n2)cc1 | 70 | 70 | 70 | – | – | 40
